Columns and labels:
Assay type in all cases: in vivo
[1] = test system: cotton aphids (aphis gossypii); test: Insecticidal test for cotton aphid, foliar spray on infested squash cotyledons; settings: 50 ppm spray, graded after 3 days, versus untreated check
Experimental: Insecticidal Test for Cotton Aphid (Aphis gossypii)
To prepare spray solutions, 2 mg of each test compound was dissolved into 2 mL of a 90:10 acetone:ethanol solvent. This 2 mL of chemical solution was added to 38 mL of water containing 0.05% Tween 20 surfactant to produce a 50 ppm spray solution.
Squash cotyledons were infested with cotton aphid (all life stages16-20 hours prior to application of spray solution. The solution was sprayed on both sides of each infested squash cotyledon (0.5 mL×2 each side with a sweeping action using a total of 2 mL of spray solution. The plants were allowed to air dry and held for 3 days in a controlled room at 26° C. and 40% RH after which time the test was graded. Grading was by actual count using a dissecting microscope and comparison of test counts to the untreated check. Results are given in Table 1 as percent control based on population reduction versus the untreated.

[2] = test system: twospotted spider mite (tetranychus uriticae); test: Two-spotted spider mite test, ovicide method on cotton leaf discs; settings: leaf disc dip, 6 days, hatched larvae versus untreated discs
Experimental: Insecticidal Test for Two-spotted Spider Mite (Tetranychus urticae)
Ten adult female two-spotted spider mites were placed on eight 2.2 cm leaf discs of cotton leaf, allowed to oviposit over 24 hours, and thereafter removed. The leaf discs were immersed in 100 ppm test solutions for 3 seconds, then allowed to dry with sixteen discs left untreated as a negative control. Discs were placed on an agar substrate and held at 24° C. and 90% relative humidity for 6 days.

[3] = test system: sweetpotato whitefly (bemisia tabaci); test: Sweetpotato whitefly test on cotton plants under laboratory conditions; settings: 800 ppm (table footnote), spray on cotton plants with eggs, 21 days, spent pupal cases versus solution-only plants
Experimental: Evaluation of Tests Compounds on Sweetpotato Whitefly (Bemisia tabacia) Under Laboratory Conditions
Four mg of each test compound was dissolved by adding 5 ml of a 90:10 acetone:ethanol solvent mixture to the vial containing the sample compound. […]
Five-week-old cotton plants reared in a greenhouse were stripped of all foliage except for the two uppermost true leaves that were greater than 5 cm in diameter. These plants were then placed into a laboratory colony of whiteflies for three days for oviposition by the colony females. All whiteflies were then removed from the test plants with pressurized air. The spray solution was then applied to the test plants with a hand-held syringe fitted with hollow cone nozzle. One mL spray solution was applied to each leaf top and bottom for a total of 4 mL per plant. Four replications of each test compound utilized a total of 16 mL spray solution. Plants were air dried and then placed in a holding chamber (26° C. and 40% RH for 21 days. Compound efficacy was evaluated by counting, under a dissecting microscope, the number of spent pupal cases per leaf. A spent pupal case represents a whitefly egg that has undergone full development to achieve adult status, thus indicating lack of control.
Percent control based on reduction of spent pupal cases of a test compound compared to solution-only (no test compound sprayed plants is reported in Table 1.

Row | SMILES | CA: activity at 50 ppm against cotton aphids (rating of % mortality / percent control) [1] | TSSM: activity at 100 ppm against twospotted spider mite (rating of % mortality / percent control) [2] | WF: activity at 800 ppm against sweetpotato whitefly (rating of % mortality / percent control) [3] | mortality at 50 ppm ([1]; Aphis gossypii, foliar, 72 h, read-out: CA: activity at 50 ppm against cotton aphids (rating of % mortality / percent control)) [%] | mortality at 100 ppm ([2]; foliar, 144 h, read-out: TSSM: activity at 100 ppm against twospotted spider mite (rating of % mortality / percent control)) [%]
1 | Cc1cc(-c2nc(-c3c(F)cccc3F)nn2C)nn1C [Compound 71] | A (91-100) | G (Inactive) | G (Inactive) | – | –
2 | Cc1nc(C(F)(F)F)sc1-c1nc(-c2c(F)cccc2F)nn1C [Compound 91] | C (71-80) | – | – | – | –
3 | Cn1nc(-c2c(F)cccc2F)nc1-c1snc(C#N)c1Br [Compound 4] | A (91-100) | G (Inactive) | G (Inactive) | – | –
4 | Cc1nc(Br)sc1-c1nc(-c2c(F)cccc2F)nn1C [Compound 41] | A (91-100) | A (91-100) | G (Inactive) | – | –
5 | Cc1nc(-c2nc(-c3c(F)cccc3Cl)nn2C)cs1 [Compound 49] | – | C (71-80) | – | – | –
6 | Cc1nc(-c2ccc(C(F)(F)F)cc2)sc1-c1nc(-c2c(F)cccc2F)nn1C [Compound 47] | D (61-70) | A (91-100) | G (Inactive) | – | –
7 | Cn1nc(-c2c(F)cccc2F)nc1-c1csc(-c2cccs2)n1 [Compound 50] | A (91-100) | G (Inactive) | G (Inactive) | – | –
8 | CCn1nc(-c2nc(-c3c(F)cccc3Cl)nn2C)cc1C [Compound 74] | A (91-100) | – | – | – | –
9 | Cn1nc(-c2c(F)cccc2F)nc1-c1cc(Br)c(Br)n1C [Compound 86] | A (91-100) | G (Inactive) | G (Inactive) | – | –
10 | Cc1cc(-c2nc(-c3c(F)cccc3F)nn2C)on1 [Compound 28] | – | G (Inactive) | B (81-90) | – | –
11 | Cc1cc(-c2nc(-c3c(F)cccc3Cl)nn2C)n(C)n1 [Compound 63] | A (91-100) | G (Inactive) | – | – | –
12 | Cn1nc(-c2c(F)cccc2F)nc1-c1scnc1Cl [Compound 38] | A (91-100) | A (91-100) | G (Inactive) | – | –
13 | Cn1nc(-c2c(F)cccc2F)nc1-c1cnn(-c2ccc(Cl)cc2)c1C(F)(F)F [Compound 79] | A (91-100) | G (Inactive) | G (Inactive) | – | –
14 | Cn1nc(-c2c(F)cccc2F)nc1-c1cnn(C)c1[N+](=O)[O-] [Compound 78] | A (91-100) | A (91-100) | G (Inactive) | – | –
15 | Cn1nc(-c2c(F)cccc2F)nc1-c1snnc1-c1ccccc1 [Compound 58] | A (91-100) | C (71-80) | G (Inactive) | – | –
16 | Cn1nc(-c2c(F)cccc2Cl)nc1-c1snc(-c2ccc(Cl)cc2)c1Br [Compound 12] | A (91-100) | A (91-100) | G (Inactive) | – | –
17 | Cc1nc(-c2nc(-c3c(F)cccc3F)nn2C)cs1 [Compound 48] | D (61-70) | G (Inactive) | – | – | –

Row | SMILES | CA: activity at 50 ppm against cotton aphids (rating of % mortality / percent control) [1] | TSSM: activity at 100 ppm against twospotted spider mite (rating of % mortality / percent control) [2] | WF: activity at 800 ppm against sweetpotato whitefly (rating of % mortality / percent control) [3] | mortality at 50 ppm ([1]; Aphis gossypii, foliar, 72 h, read-out: CA: activity at 50 ppm against cotton aphids (rating of % mortality / percent control)) [%] | mortality at 100 ppm ([2]; foliar, 144 h, read-out: TSSM: activity at 100 ppm against twospotted spider mite (rating of % mortality / percent control)) [%]
18 | Cc1cc(-c2nc(-c3c(F)cccc3Cl)nn2C)nn1C [Compound 72] | A (91-100) | C (71-80) | G (Inactive) | – | –
19 | Cn1nc(-c2c(F)cccc2F)nc1-c1snc(-c2ccc(Cl)cc2)c1Br [Compound 11] | A (91-100) | A (91-100) | G (Inactive) | – | –
20 | Cn1cc(Cl)c(-c2nc(-c3c(F)cccc3Cl)nn2C)n1 [Compound 75] | – | G (Inactive) | B (81-90) | – | –
21 | Cn1nc(-c2c(F)cccc2F)nc1-c1cc(C(C)(C)C)nn1Cc1ccccc1 [Compound 70] | B (81-90) | G (Inactive) | E (51-60) | – | –
22 | Cc1cnsc1-c1nc(-c2c(F)cccc2Cl)nn1C [Compound 3] | B (81-90) | A (91-100) | G (Inactive) | – | –
23 | Cn1nc(-c2c(F)cccc2F)nc1-c1snc(-c2cccc(C(F)(F)F)c2)c1Br [Compound 16] | B (81-90) | G (Inactive) | – | – | –
24 | Cn1nc(-c2c(F)cccc2F)nc1-c1snc(-c2ccc([N+](=O)[O-])cc2)c1Br [Compound 15] | – | G (Inactive) | G (Inactive) | – | –
25 | Cc1ncoc1-c1nc(-c2c(F)cccc2F)nn1C [Compound 55, 3-(2,6-Difluorophenyl)-5-(4-methyloxazol-5-yl)-1-methyl[1,2,4]triazole] | – | – | – | 0 to 51 | 0 to 51
26 | CCn1nc(C)cc1-c1nc(-c2c(F)cccc2F)nn1C [Compound 60] | B (81-90) | G (Inactive) | – | – | –
27 | Cn1nc(-c2c(F)cccc2Cl)nc1-c1c(C(F)(F)F)nn(C)c1Cl [Compound 77] | – | A (91-100) | – | – | –
28 | Cc1nn(C)c(Cl)c1-c1nc(-c2c(F)cccc2Cl)nn1C [Compound 76] | B (81-90) | A (91-100) | – | – | –
29 | Cc1ncsc1-c1nc(-c2c(F)cccc2F)nn1C [Compound 37] | B (81-90) | A (91-100) | – | – | –
30 | Cn1nc(-c2c(F)cccc2F)nc1-c1cc(-c2ccc(Cl)cc2)ns1 [Compound 9] | E (51-60) | – | G (Inactive) | – | –
31 | CCCc1c(-c2nc(-c3c(F)cccc3F)nn2C)cnn1-c1ccc(Cl)cc1 [Compound 80] | – | G (Inactive) | – | – | –
32 | Cc1nc(-c2ccc(Cl)cc2)sc1-c1nc(-c2c(F)cccc2F)nn1C [Compound 90] | – | A (91-100) | – | – | –
33 | Cc1nc(Cl)sc1-c1nc(-c2c(F)cccc2Cl)nn1C [Compound 40] | A (91-100) | A (91-100) | – | – | –
34 | Cn1nc(-c2c(F)cccc2F)nc1-c1cc(C(C)(C)C)no1 [Compound 30] | D (61-70) | G (Inactive) | – | – | –

— patent US6413997B1, “3-(substituted phenyl)-5-(substituted heterocyclyl)-1,2,4-triazole compounds” (priority 1998, dated 2002)
